Where two headings read alike, the source gives them in different places. A value given as a limit tells only on which side of the number the result lay.

The values that follow come from patent US11008340B2, “Modulators of ROR-gamma” (Vitae Pharmaceuticals, LLC, priority 2015, dated 2021).

Test [1] has as its target T1, recombinant RORγ Ligand Binding Domain (LBD) protein (Homo sapiens, UniProt P51449).
T1 construct: 6×His; GST
T1 sequence (P51449 269-508 limits assumed): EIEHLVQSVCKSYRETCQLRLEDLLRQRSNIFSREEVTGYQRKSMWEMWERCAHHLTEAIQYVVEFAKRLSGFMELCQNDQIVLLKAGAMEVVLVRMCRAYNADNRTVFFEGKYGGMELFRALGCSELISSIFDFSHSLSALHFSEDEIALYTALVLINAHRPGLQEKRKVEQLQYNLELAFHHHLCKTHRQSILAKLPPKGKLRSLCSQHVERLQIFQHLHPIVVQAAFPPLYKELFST
In words: Radio-Ligand RORγ Binding Assay (Assay 1). The conditions noted are these: radio-ligand competition, RORγ LBD, read-out: Avg ROR Bind Ki. The essentials:
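Cell-free SPA competition between compound and 25-hydroxy[26,27-^3H]-cholesterol for 6×His-GST-tagged RORγ LBD in 50 mM HEPES pH 7.4 with NaCl, MgCl2, glycerol, CHAPS, octylglucoside and DTT. Mix was shaken 20 min, held 10 min at rt, then read after poly-Lys YSi beads. IC50 came from a four-parameter fit, and Ki from radioligand KD.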

The target in test [2] is T2, full-length RORγt in Jurkat cells (Homo sapiens, UniProt P51449).
T2 construct: transcriptional activity of the full-length RORγt in Jurkat cells; host or cells: Jurkat cells (ATCC TIB-152)
T2 sequence (P51449 1-497 isoform P51449-2): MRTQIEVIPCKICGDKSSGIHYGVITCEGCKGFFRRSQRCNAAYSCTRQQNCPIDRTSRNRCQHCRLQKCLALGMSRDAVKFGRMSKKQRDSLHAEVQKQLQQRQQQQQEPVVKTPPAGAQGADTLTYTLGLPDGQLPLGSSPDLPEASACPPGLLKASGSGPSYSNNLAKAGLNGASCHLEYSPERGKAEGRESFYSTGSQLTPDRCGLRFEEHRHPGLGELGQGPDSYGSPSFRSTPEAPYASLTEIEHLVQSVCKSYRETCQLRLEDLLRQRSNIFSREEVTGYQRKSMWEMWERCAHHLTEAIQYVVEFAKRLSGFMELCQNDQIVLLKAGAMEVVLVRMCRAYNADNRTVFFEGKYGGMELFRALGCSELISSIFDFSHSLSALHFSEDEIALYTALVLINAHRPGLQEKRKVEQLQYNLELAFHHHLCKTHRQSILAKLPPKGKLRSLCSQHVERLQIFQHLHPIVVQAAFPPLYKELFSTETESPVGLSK
In words: RORγt 5×RORE Assay in Jurkat Cells (Assay 2). In kind it is cell-based. As to conditions: 5×RORE luciferase reporter, read-out: Avg ROR γt/5x IC50. In a few lines:
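Jurkat cells transiently co-transfected with full-length RORγt expression plasmid and secreted NanoLuc reporter driven by 5×RORE; plated in phenol-red-free RPMI with 10% delipidated FBS. Compounds added at 0.1% DMSO final, 16-18 hrs at 37° C; supernatant luciferase read with NanoGlo as measure of inverse agonism.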
In general terms: In a reporter assay the amount or activity of a reporter protein is the signal.

[3] abbreviates: 25-hydroxy [26,27-3H]-cholesterol.
The mark [4] stands for this setting: head without unit (Tables 15, 17).

On to `CCS(=O)(=O)c1ccc(CNC(=O)c2ccc3c(c2)CCN(CC2CCN(C(=O)OC)CC2)[C@H]3C(C)C)cc1` [Hy2A-24, methyl (S)-4-((6-((4-(ethylsulfonyl)benzyl)carbamoyl)-1-isopropyl-3,4-dihydroisoquinolin-2(1H)-yl)methyl)piperidine-1-carboxylate], for which, in test [1] (setting [3]), the Ki was in the range of 100 to 1000 nM. In addition, the IC50 in test [2] was in the range of 100 to 1000 nM.
Regarding `CCS(=O)(=O)c1ccc([C@H](CO)NC(=O)c2ccc3c(C4CC4)n(C[C@H]4CC[C@H](C(F)(F)F)CC4)nc3c2)cc1` [Hy3A-1, 3-cyclopropyl-N-((R)-1-(4-(ethylsulfonyl)phenyl)-2-hydroxyethyl)-2-(((1r,4R)-4-(trifluoromethyl)cyclohexyl)methyl)-2H-indazole-6-carboxamide], the Ki in test [1] (setting [3]) was under 100 nM. Also, the IC50 in test [2] is under 100 nM.
For the compound `CCS(=O)(=O)c1ccc(CNC(=O)c2ccc3c(C4CC4)n(C[C@H]4CC[C@H](C(F)(F)F)CC4)nc3c2)cc1` [Hy3A-2, 3-cyclopropyl-N-(4-(ethylsulfonyl)benzyl)-2-(((1r,4r)-4-(trifluoromethyl)cyclohexyl)methyl)-2H-indazole-6-carboxamide], the Ki in test [1] (setting [3]) is under 100 nM. Also, the IC50 in test [2] was under 100 nM.
Turning to `CCS(=O)(=O)c1ccc(CNC(=O)c2ccc3c(C4CC4)n(C[C@H]4CC[C@H](C(F)(F)F)CC4)nc3c2)nc1` [Hy3A-3, 3-cyclopropyl-N-((5-(ethylsulfonyl)pyridin-2-yl)methyl)-2-(((1r,4r)-4-(trifluoromethyl)cyclohexyl)methyl)-2H-indazole-6-carboxamide], the Ki in test [1] (setting [3]) is under 100 nM. Besides, the IC50 in test [2] is under 100 nM.
Turning to `CCS(=O)(=O)c1ccc([C@H](CO)NC(=O)c2ccc3c(C4CC4)n(Cc4ccc(C(F)(F)F)cc4)nc3c2)cc1` [Hy3A-4, (R)-3-cyclopropyl-N-(1-(4-(ethylsulfonyl)phenyl)-2-hydroxyethyl)-2-(4-(trifluoromethyl)benzyl)-2H-indazole-6-carboxamide], in test [1] (setting [3]), the Ki was under 100 nM. Besides, in test [2], the IC50 was under 100 nM.
On to `CCc1c2ccc(C(=O)N[C@@H](CO)c3ccc(S(=O)(=O)CC)cc3)cc2nn1C[C@H]1CC[C@H](C(F)(F)F)CC1` [Hy3A-5, 3-ethyl-N-((R)-1-(4-(ethylsulfonyl)phenyl)-2-hydroxyethyl)-2-(((1r,4R)-4-(trifluoromethyl)cyclohexyl)methyl)-2H-indazole-6-carboxamide], for which, in test [1] (setting [3]), the Ki is under 100 nM. The IC50 in test [2] was under 100 nM.
With `CCS(=O)(=O)c1ccc([C@H](CO)NC(=O)c2ccc3c(C4CC4)n(C[C@H]4CC[C@H](C(F)(F)F)CC4)nc3c2)nc1` [Hy3A-6, 3-cyclopropyl-N-((R)-1-(5-(ethylsulfonyl)pyridin-2-yl)-2-hydroxyethyl)-2-(((1r,4R)-4-(trifluoromethyl)cyclohexyl)methyl)-2H-indazole-6-carboxamide], the Ki in test [1] (setting [3]) was under 100 nM. The IC50 in test [2] was under 100 nM.
As to `CCS(=O)(=O)c1ccc([C@H](CO)NC(=O)c2ccc3c(C4CC4)n(Cc4ccc(C(F)(F)F)cc4)nc3c2)nc1` [Hy3A-7, (R)-3-cyclopropyl-N-(1-(5-(ethylsulfonyl)pyridin-2-yl)-2-hydroxyethyl)-2-(4-(trifluoromethyl)benzyl)-2H-indazole-6-carboxamide], the Ki in test [1] (setting [3]) was under 100 nM. The IC50 in test [2] was under 100 nM.
In the case of `CCS(=O)(=O)c1ccc([C@H](CO)NC(=O)c2cnc3c(C4CC4)n(C[C@H]4CC[C@H](C(F)(F)F)CC4)nc3c2)cc1` [Hy3B-1, 3-cyclopropyl-N-((R)-1-(4-(ethylsulfonyl)phenyl)-2-hydroxyethyl)-2-(((1r,4R)-4-(trifluoromethyl)cyclohexyl)methyl)-2H-pyrazolo[4,3-b]pyridine-6-carboxamide], in test [1] (setting [3]), the Ki was under 100 nM. Also, the IC50 in test [2] was under 100 nM.
`CCS(=O)(=O)c1ccc(CNC(=O)c2cnc3c(C4CC4)n(C[C@H]4CC[C@H](C(F)(F)F)CC4)nc3c2)cc1` [Hy3B-2, 3-cyclopropyl-N-(4-(ethylsulfonyl)benzyl)-2-(((1r,4r)-4-(trifluoromethyl)cyclohexyl)methyl)-2H-pyrazolo[4,3-b]pyridine-6-carboxamide]: the Ki in test [1] (setting [3]) is under 100 nM. In addition, the IC50 in test [2] was under 100 nM.
Turning to `CCS(=O)(=O)c1ccc(CNC(=O)c2cc3ccnc(OC[C@H]4CC[C@H](C(F)(F)F)CC4)c3n2C)cc1` [Hy4-1, N-(4-(ethylsulfonyl)benzyl)-1-methyl-7-(((1r,4r)-4-(trifluoromethyl)cyclohexyl)methoxy)-1H-pyrrolo[2,3-c]pyridine-2-carboxamide], the Ki in test [1] (setting [4]) was under 100 nM. The IC50 in test [2] (setting [4]) lay in the range of 100 to 1000 nM.
For `CCS(=O)(=O)c1ccc([C@H](CO)NC(=O)c2cc3ccnc(OC[C@H]4CC[C@H](C(F)(F)F)CC4)c3n2C)cc1` [Hy4-2, N-((R)-1-(4-(ethylsulfonyl)phenyl)-2-hydroxyethyl)-1-methyl-7-(((1r,4R)-4-(trifluoromethyl)cyclohexyl)methoxy)-1H-pyrrolo[2,3-c]pyridine-2-carboxamide] the same measures were under 100 nM and under 100 nM.
With `CCS(=O)(=O)c1ccc(CNC(=O)c2cc3ccnc(OCc4ccc(C(F)(F)F)cc4)c3n2C)cc1` [Hy4-3, N-(4-(ethylsulfonyl)benzyl)-1-methyl-7-((4-(trifluoromethyl)benzyl)oxy)-1H-pyrrolo[2,3-c]pyridine-2-carboxamide], the Ki in test [1] (setting [4]) is under 100 nM. In addition, the IC50 in test [2] (setting [4]) lay in the range of 100 to 1000 nM.
As for `CCS(=O)(=O)c1ccc([C@H](CO)NC(=O)c2cc3ccnc(OCc4ccc(C(F)(F)F)cc4)c3n2C)cc1` [Hy4-4, (R)-N-(1-(4-(ethylsulfonyl)phenyl)-2-hydroxyethyl)-1-methyl-7-((4-(trifluoromethyl)benzyl)oxy)-1H-pyrrolo[2,3-c]pyridine-2-carboxamide], the Ki in test [1] (setting [4]) was under 100 nM. Moreover, the IC50 in test [2] (setting [4]) lay within 100 to 1000 nM.
For `CCS(=O)(=O)c1ccc(CNC(=O)c2cn(C)c3c(OCc4ccc(C(F)(F)F)cc4)nccc23)cc1` [Hy5-3, N-(4-(ethylsulfonyl)benzyl)-1-methyl-7-((4-(trifluoromethyl)benzyl)oxy)-1H-pyrrolo[2,3-c]pyridine-3-carboxamide], the Ki in test [1] (setting [3]) was under 100 nM. In addition, the IC50 in test [2] is under 100 nM.
`CCS(=O)(=O)c1ccc(CNC(=O)c2sc3nc(C)nc(OCc4ccc(C(F)(F)F)cc4)c3c2C)cc1` [Hy6-1, N-(4-(ethylsulfonyl)benzyl)-2,5-dimethyl-4-((4-(trifluoromethyl)benzyl)oxy)thieno[2,3-d]pyrimidine-6-carboxamide]: the Ki in test [1] (setting [3]) was under 100 nM. Also, the IC50 in test [2] was in the range of 100 to 1000 nM.
On to `CCS(=O)(=O)c1ccc(CNC(=O)c2sc3nc(C)nc(OC[C@H]4CC[C@H](C(F)(F)F)CC4)c3c2C)cc1` [Hy6-2, N-(4-(ethylsulfonyl)benzyl)-2,5-dimethyl-4-(((1r,4r)-4-(trifluoromethyl)cyclohexyl)methoxy)thieno[2,3-d]pyrimidine-6-carboxamide], for which, in test [1] (setting [3]), the Ki is under 100 nM. In test [2], the IC50 is 100 to 1000 nM.
For `CCS(=O)(=O)c1ccc([C@H](CO)NC(=O)c2sc3nc(C)nc(OCc4ccc(C(F)(F)F)cc4)c3c2C)cc1` [Hy6-3, (R)-N-(1-(4-(ethylsulfonyl)phenyl)-2-hydroxyethyl)-2,5-dimethyl-4-((4-(trifluoromethyl)benzyl)oxy)thieno[2,3-d]pyrimidine-6-carboxamide] the same measures were under 100 nM and under 100 nM.
Take `CCS(=O)(=O)c1ccc([C@H](CO)NC(=O)c2sc3nc(C)nc(OC[C@H]4CC[C@H](C(F)(F)F)CC4)c3c2C)cc1` [Hy6-4, N-((R)-1-(4-(ethylsulfonyl)phenyl)-2-hydroxyethyl)-2,5-dimethyl-4-(((1r,4R)-4-(trifluoromethyl)cyclohexyl)methoxy)thieno[2,3-d]pyrimidine-6-carboxamide]: the Ki in test [1] (setting [3]) is under 100 nM. The IC50 in test [2] was under 100 nM.

For orientation: Ki means a measure of affinity in units of concentration, obtained from inhibition or displacement.
